Data published in paper PMC5942189 (Journal of the American Chemical Society, 2018).

Assays:
[1] = system: Escherichia coli W3110 (wild-type); test: MIC determination in Mueller-Hinton broth, E. coli W3110; type: cell-based; details: standard Mueller-Hinton broth assay
[2] = system: multi-drug-resistant Acinetobacter baumannii (Ab) 5075; test: MIC determination in Mueller-Hinton broth, A. baumannii 5075; type: cell-based; details: multi-drug-resistant A. baumannii Ab5075; standard Mueller-Hinton broth assay
[3] = system: E. coli WD101 (isogenic CAMP-resistant mutant, colistin-resistant); test: MIC determination in Mueller-Hinton broth, E. coli WD101; type: cell-based, Escherichia coli; details: standard Mueller-Hinton broth assay

Substance	MIC [1] [µM]	MIC [2] [µM]	MIC [3] [µM]
N-AlTRSSRAGLQFPVGRVHRLLRKF-Hy (sidechain bridge or staple) [HyRes buforin]	8	4	16
N-XTRSSRAGLQFPVGRVHRLLRXK-C [DiHy buforin]	–	64	–
N-XTRSSRAGLQFPXVGRVHRLLRXK-C [TriAl buforin]	–	64	–
